Legend:
5-HT2C receptor = biological target: T1, 5-HT2C receptor (Homo sapiens, UniProt P28335); test: Gq activation via Gq/γ1 dissociation BRET, 5-HT2C; assay type: cell-based; conditions: primary signaling for 5-HT2C via Gq-coupled mechanism compared to B-arrestin
T1 construct: expressed in transfected cells; host or cells: HEK293T
T1 sequence (P28335 33-458): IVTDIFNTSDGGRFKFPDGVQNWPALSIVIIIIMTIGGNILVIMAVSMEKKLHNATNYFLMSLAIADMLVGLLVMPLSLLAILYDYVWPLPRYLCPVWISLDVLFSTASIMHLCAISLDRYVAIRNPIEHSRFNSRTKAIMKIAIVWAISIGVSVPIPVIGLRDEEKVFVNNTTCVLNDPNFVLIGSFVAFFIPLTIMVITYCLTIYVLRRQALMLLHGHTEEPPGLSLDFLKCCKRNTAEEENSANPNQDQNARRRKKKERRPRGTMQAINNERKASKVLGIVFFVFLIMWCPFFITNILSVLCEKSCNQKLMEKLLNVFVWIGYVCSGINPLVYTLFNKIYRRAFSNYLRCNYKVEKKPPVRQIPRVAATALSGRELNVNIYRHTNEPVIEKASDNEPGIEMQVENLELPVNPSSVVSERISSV
Description: (§1) To measure 5-HT2 receptor-mediated Gq activation via Gq/y1 dissociation as measured by Bioluminescence Resonance Energy Transfer (BRET) (McCorvy J D, Wacker D, Wang S, Agegnehu B, Liu J, Lansu K, Tribo A R, Olsen R H J, Che T, Jin J, Roth B L. Structural determinants of 5-HT2B receptor activation and biased agonism. Nat Struct Mol Biol. 2018; 25(9): 787-96), HEK293T cells were sub-cultured in Dulbecco's Modified Eagle Medium (DMEM) supplemented with 10% dialyzed fetal bovine serum (FBS) and were co-transfected in a 1:1:1:1 ratio with Rluc8-fused human Gaq (Gaq-Rluc8), a GFP2-fused to the C-terminus of human Gy1 (Gy1-GFP2), human GI31, and 5-HT2 receptor using TransiT-2020. After at least 18-24 hours, transfected cells were plated in poly-lysine coated 96-well white clear bottom cell culture plates in DMEM containing 1% dialyzed FBS at a density of 25,000-40,000 cells in 200 μL per well and incubated overnight. The following day, medium was decanted, and cells were washed with 60 μL of drug buffer (1×HBSS, 20 mM HEPES, pH 7.4), then 60 μL of drug buffer was added per well. Cells were pre-incubated at in a humidified atmosphere at 37° C. before receiving drug stimulation. […] Substrate addition occurred 15 minutes before reading and utilized 10 μL of the Rluc substrate coelenterazine 400a for Gq dissociation BRET^2 (Prolume/Nanolight, 5 μM final concentration). Plates were read for luminescence at 400 nm and fluorescent GFP2 emission at 510 nm at 1 second per well using a Mithras LB940 multimode microplate reader (e.g. one provided by Berthold). The BRET ratios of fluorescence/luminescence were calculated per well and were plotted as a function of drug concentration using Graphpad Prism 8 (Graphpad Software Inc., San Diego, CA). Data were normalized to % 5-HT stimulation and analyzed using nonlinear regression “log(agonist) vs. response” to yield Emax and EC50 parameter estimates. […]

5-HT2A receptor = biological target: T2, 5-HT2A receptor (Homo sapiens, UniProt P28223); test: Gq activation via Gq/γ1 dissociation BRET, 5-HT2A; assay type: cell-based; conditions: hallucinogenic or non-hallucinogenic plastogenic effect predicted from level of 5-HT2A agonist efficacy
T2 construct: expressed in transfected cells; host or cells: HEK293T
T2 sequence (P28223 whole entry): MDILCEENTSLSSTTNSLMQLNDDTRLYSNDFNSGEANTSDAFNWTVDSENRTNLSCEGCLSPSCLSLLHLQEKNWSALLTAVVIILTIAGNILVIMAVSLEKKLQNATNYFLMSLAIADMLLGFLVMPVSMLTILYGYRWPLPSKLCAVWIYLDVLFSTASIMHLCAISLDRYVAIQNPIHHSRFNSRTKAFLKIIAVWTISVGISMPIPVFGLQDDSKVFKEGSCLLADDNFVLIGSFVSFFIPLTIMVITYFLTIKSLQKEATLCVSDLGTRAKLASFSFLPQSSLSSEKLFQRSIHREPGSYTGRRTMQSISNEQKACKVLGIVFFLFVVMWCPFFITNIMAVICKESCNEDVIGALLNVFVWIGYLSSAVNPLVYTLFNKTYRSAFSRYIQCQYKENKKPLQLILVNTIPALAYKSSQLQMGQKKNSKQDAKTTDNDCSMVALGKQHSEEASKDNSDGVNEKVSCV
Description: as §1

Compound	5-HT2C Gq signaling bias? (5-HT2C receptor)	Hall or N-Hall? (5-HT2A receptor)
CSc1ccc(F)cc1C1CC1CN(C)C (stereo not drawn)	Yes	N-Hall
CNC[C@H]1C[C@@H]1c1cc(F)ccc1OC	Yes	N-Hall
CNCC1CC1c1cc(F)ccc1SC (stereo not drawn)	Yes	N-Hall

From US12570602B2, “Selective serotonin receptor modulators and methods of making and using the same” (Park City Bio, LLC, priority 2024, dated 2026)
